Experimental data reported in the supplement of paper PMC10733146.

Key:
Assay in all cases: viability relative to DMSO control (fraction); higher = less drug effect (more viable cells)
Conditions in all cases: 48 h
[1] = compound: CC(C)(C)OC(=O)Nc1ccc(-c2cc(C(=O)NCCCCCCC(=O)NO)no2)cc1
In short: (§1)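 In 384-well plates with compounds pre-plated at five concentrations (one well per concentration), primary mononuclear tumour cells were plated at 4 × 10^4 cells per well. The cells came from blood or bone marrow by Ficoll isolation or from processed lymph node, and were used fresh or cryopreserved. Culture ran for 48 h at 37 °C and 5% CO2 in RPMI-1640 containing penicillin/streptomycin, L-glutamine and human serum. Viability was read as CellTiter-Glo luminescence, normalised to the median of 16 inner DMSO wells.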

[2] = compound: CCCS(=O)(=O)Nc1ccc(F)c(C(=O)c2c[nH]c3ncc(-c4ccc(Cl)cc4)cc23)c1F [Vemurafenib]
In short: as §1

[3] = compound: COc1cc(OC)c(/C=C/S(=O)(=O)Cc2ccc(OC)c(NCC(=O)O)c2)c(OC)c1 [Rigosertib]
In short: as §1

[4] = compound: OCc1ccc(-c2ccc(-c3ccc(CO)s3)o2)s1
In short: as §1

Row | Test System | viability ([1]; 0.024 µM) | viability ([1]; 0.12 µM) | viability ([1]; 0.6 µM) | viability ([1]; 3 µM) | viability ([1]; 15 µM) | viability ([2]; 0.024 µM) | viability ([2]; 0.12 µM) | viability ([2]; 0.6 µM) | viability ([2]; 3 µM) | viability ([2]; 15 µM) | viability ([3]; 0.008 µM) | viability ([3]; 0.04 µM) | viability ([3]; 0.2 µM) | viability ([3]; 1 µM) | viability ([3]; 5 µM) | viability ([4]; 0.024 µM) | viability ([4]; 0.12 µM) | viability ([4]; 0.6 µM) | viability ([4]; 3 µM) | viability ([4]; 15 µM)
1 | primary ALL patient cells (S088) | 0.612 | 0.528 | 0.264 | 0.127 | 0.063 | 0.986 | 0.933 | 1.08 | 1.43 | 1.78 | 0.756 | 0.78 | 0.778 | 0.806 | 0.461 | 0.359 | 0.306 | 0.205 | 0.128 | 0.0223
2 | primary AML patient cells (S019) | 0.979 | 0.977 | 0.935 | 0.748 | 0.352 | 0.979 | 0.981 | 1.02 | 0.972 | 0.999 | 1.14 | 1.34 | 1.11 | 1.1 | 0.869 | 1.15 | 0.959 | 0.35 | 0.241 | 0.157
3 | primary BL patient cells (S005) | 1.06 | 0.802 | 0.738 | 0.591 | 0.382 | 0.966 | 0.993 | 0.989 | 1.07 | 1.1 | 0.955 | 0.94 | 0.95 | 0.89 | 0.906 | 0.798 | 0.926 | 0.821 | 0.931 | 0.616
4 | primary AML patient cells (S002) | 1.04 | 0.659 | 0.419 | 0.307 | 0.272 | 0.807 | 1.15 | 0.924 | 1.43 | 1.68 | 0.949 | 0.952 | 0.943 | 0.803 | 1.02 | 0.897 | 0.665 | 0.411 | 0.283 | 0.183
5 | primary AML patient cells (S072) | 0.887 | 0.763 | 0.673 | 0.297 | 0.175 | 0.935 | 1.06 | 0.941 | 1.07 | 1.08 | 0.941 | 0.99 | 0.983 | 0.935 | 0.872 | 0.405 | 0.353 | 0.267 | 0.252 | 0.124
6 | primary AML patient cells (S011) | 0.978 | 0.782 | 0.397 | 0.221 | 0.17 | 0.931 | 1.02 | 1.08 | 0.997 | 1.03 | 0.954 | 1.03 | 1 | 0.841 | 0.699 | 0.832 | 0.761 | 0.711 | 0.476 | 0.119
7 | primary MCL patient cells (S068) | 0.812 | 0.533 | 0.216 | 0.115 | 0.0907 | 1.04 | 0.988 | 1.05 | 1.15 | 1.19 | 0.94 | 0.934 | 0.846 | 0.835 | 0.37 | 0.705 | 0.693 | 0.701 | 0.743 | 0.348
8 | primary T-PLL patient cells (S008) | 0.97 | 0.973 | 1.01 | 0.848 | 0.704 | 0.958 | 0.983 | 0.975 | 0.998 | 1.02 | 1.07 | 1.02 | 1.07 | 0.991 | 0.98 | 0.894 | 0.961 | 0.855 | 0.776 | 0.246
9 | primary AML patient cells (S012) | 1 | 1.04 | 0.964 | 0.432 | 0.0462 | 0.873 | 1.02 | 0.889 | 1.04 | 1.12 | 0.966 | 1.04 | 0.995 | 1.02 | 0.985 | 1.12 | 1.01 | 0.859 | 0.601 | 0.372
10 | primary AML patient cells (S085) | 1.03 | 0.784 | 0.334 | 0.0887 | 0.047 | 1.22 | 2.12 | 0.995 | 1.26 | 1.41 | 1.05 | 1.1 | 0.68 | 0.394 | 0.3 | 0.266 | 0.112 | 0.0946 | 0.0902 | 0.0476
11 | primary AML patient cells (S071) | 0.832 | 0.739 | 0.75 | 0.304 | 0.105 | 0.975 | 0.999 | 0.963 | 1.05 | 1.06 | 0.916 | 0.938 | 0.84 | 0.686 | 0.628 | 0.821 | 0.744 | 0.454 | 0.255 | 0.151
12 | primary AML patient cells (S091) | 0.846 | 0.811 | 0.395 | 0.14 | 0.107 | 1 | 1.66 | 1.12 | 1.4 | 1.9 | 0.971 | 1.06 | 0.961 | 0.899 | 1.05 | 0.906 | 0.883 | 0.759 | 0.593 | 0.413
